{"source": "patent US20240307397A1", "about": "“PHARMACEUTICAL COMPOSITION COMPRISING PI3K AND DNA-PK DUAL INHIBITOR FOR PREVENTING OR TREATING PERIPHERAL T CELL LYMPHOMA” (BORYUNG CORPORATION, priority 2021, published 2024)", "key": {"[1]": {"test_system": "regulatory T cells (Tregs)", "assay": "Whole blood flow-cytometry pharmacodynamics, regulatory T cells", "assay_type": "in vivo, humans", "settings": "as plasma concentration of the test drug increased (FIG. 6A)", "method": "(§1) Blood samples for pharmacodynamic analyses of the test drug were collected in phase Ia (dose escalation part). Whole blood samples were evaluated by flow-cytometry after coimmunostaining for CD3^+, CD4^+, CD25^+, CD127low and CD8^+. Through this, we tried to observe the effects of the test drug on regulatory T cells (Tregs) and CD8^+ T cells."}, "[2]": {"test_system": "advanced hematologic malignancies (PTCL, DLBCL, MZL, CTCL-MF)", "assay": "Phase Ia clinical trial: tumor response assessment", "assay_type": "in vivo, humans", "method": "1) Tumor response is assessed for both phases la and Ib. The anticancer activity of the test drug is assessed by applying various criteria through imaging tests every two cycles of clinical trials and at the end of therapy (EOT) (optional) (see table 14 for disease assessment criteria below), or for liquid tumors, bone marrow aspirates/biopsies and blood assessments are performed. Tumor response parameters that are assessed include the following: (1) Best overall response: complete response (CR), partial response (PR), stable disease (SD, lasting 12 weeks), or disease progression (DP) Details of the disease assessment criteria and the tools used to determine efficacy parameters are as follows (Table 14). The tumor response (lymphoma (B-cell and T-cell), CLL/SLL, Waldenstrom macroglobulinemia) following administration of the test drug in phases Ia and Ib is assessed using the criteria in table 14. Tumor response parameters vary according to the above applied criteria and may include the followings: The best overall response is defined as the best response across all time points (in the order of CR, PR, SD, and DP) post-treatment. The best overall response (CR, PR, SD, or DP) is summarized by number of subjects and percentages. In the case of best response equal to SD, the minimum duration for SD should be met. For the purpose of calculating an SD rate, the rate will be the percentage (%) of subjects who continue to have SD for at least 12 weeks."}, "[3]": {"assay": "Plasma pharmacokinetic analyses in clinical trial subjects (C1D1, C1D15)", "assay_type": "in vivo, humans", "text": "1) Plasma concentration-time profile of the test drug (days 1 and 15), urine concentration data (day 15), and derived single dose plasma PK and multiple dose plasma and urine PK parameters (if applicable). • Blood samples are collected according to a predetermined schedule to measure a plasma concentration of the test drug (Table 5). In phase Ia clinical trials, entire urine needs to be collected over each dosing interval according to a pre-determined schedule, starting after dose administration (Table 5).\n• Samples for the determination of the test drug in plasma and urine are analyzed using appropriate validated bioanalytical methods. • Pharmacokinetic parameters are derived using noncompartmental methods with Phoenix® WinNonlin® Version 8.0 or higher (Certara, L.P. Princeton, New Jersey, USA) and/or SAS® Version 9.2 or higher (SAS Institute, Inc., Cary, North Carolina, USA). Actual elapsed time from dosing will be used for the final plasma PK parameter calculations. A minimum of 3 quantifiable postdose concentrations will be required for all calculations. • The PK parameters to be determined for plasma concentration of the test drug on day 1 of cycle 1 and day 15 of cycle 1, if calculable, include but not be limited to the following parameters presented table 6.\nPlasma concentrations and PK parameters of the test drug are listed and summarized by dose, cycle, and clinical trial phase using descriptive statistics.\nOn the day 1 of cycle 1 (C1D1), plasma samples for pharmacokinetic analyses in clinical trial subjects were obtained before and after administration of the test drug (0.5, 1, 1.5, 2, 3, 4, 6, 9, 12 and 24 hours). As a result of the collected pharmacokinetic analyses, it was confirmed that a maximum plasma concentration after a single dose of 50 mg QD, 100 mg QD and 200 mg QD of the test drug ranged […], and a systemic exposure (based on AUC0-24) ranged from 2760 to 21850 ng*h per mL."}, "[4]": {"test_system": "subjects with advanced hematologic malignancies", "assay": "Phase Ia dose escalation clinical trial: safety, tolerability, DLT and MTD/RP2D", "assay_type": "in vivo", "text": "The phase Ia part (dose escalation) of this clinical trial is designed to determine safety, tolerability, and maximum tolerated dose (MTD)/starting dose (RP2D) for clinical phase Ib/II of the test drug in subjects with relapsed/refractory B-cell lymphoma, chronic lymphocytic leukemia (CLL)/small lymphocytic leukemia (SLL) and peripheral T-cell lymphoma (PTCL).\nA method for escalating a dose during the treatment period (phase Ia part) is as follows. At least of 1 and up to 6 subjects may be enrolled in cohorts 1 and 2. 3 to 6 subjects may be enrolled into subsequent cohorts.\n(2) Cohort 3 and all subsequent cohorts will follow the standard 3+3 design. […] If 1 of the 3 subjects experiences a DLT, that dose level will be expanded to 6 subjects (3 additional subjects will be enrolled). If 2 subjects at a given dose level experience a DLT, the maximum tolerated dose (MTD) will have been exceeded and further accrual to the cohort will be terminated. The next lower dose level will be expanded to 6 subjects or if 6 subjects have already been enrolled and no more than 1 of the 6 experienced a DLT, then this lower dose level will be considered the MTD (FIG. 3).\nThe dose limiting toxicity (DLT) in this clinical trial may include the followings:\n1) Assessed by adverse events, vital signs, electrocardiogram (ECG), clinical laboratory tests, physical examination, ECOG performance status up to the last Safety Follow-up Visit, and baseline medical conditions.\n2) Tolerability assessment includes review of dose interruptions, reductions, and doses administered up to the last Safety Follow-up Visit.\n3) Determination of the maximum tolerated dose (MTD) and the starting dose (RP2D) for clinical phase Ib/II are based on dose limiting toxicity (DLT) during Cycle 1.\nThe number and proportion of subjects experiencing the dose limiting toxicity (DLT) are summarized based on the dose-limiting toxicity evaluable set. […] Estimation of maximum tolerated dose (MTD)/recommended dose for clinical phase Ib/II (RP2D) are based upon the methods for determination of MTD/RP2D provided herein (see 3. Overall design, 2) How to escalate dose of test drug).\nA treatment emergent adverse event (TEAE) is defined as any AE that occurs after the first administration of the test drug through 30 days after the last administration of the test drug, or any event that is present at baseline but worsens in severity. […] All the adverse events and toxicities are graded according to CTCAE (version 5.0). Analysis may include, but is not limited to, the followings: […]"}, "CD8+ T cells": {"test_system": "CD8+ T cells", "assay": "Whole blood flow-cytometry pharmacodynamics, CD8+ T cells", "assay_type": "in vivo, humans", "settings": "as plasma concentration of the test drug increased (FIG. 6B)", "method": "as §1"}, "[5]": {"settings": "11 of 12 subjects enrolled in phase Ia assessed"}, "[6]": {"settings": "multiple dosing (C1D15), 50 mg to 200 mg cohort"}, "[7]": {"settings": "of 11 clinical trial subjects, oral QD"}}}
{"smiles": "C[C@H](Nc1ncnc2[nH]ccc(=O)c12)c1c(Cl)c2cccc(Cl)c2c(=O)n1-c1ccccc1", "note": "[test drug, 4-[[(1S)-1-(4,8-dichloro-1-oxo-2-phenyl-3-isoquinolyl)ethyl]amino]-8H-pyrido[2,3-d]pyrimidin-5-one]", "values": [{"measurement": "change of regulatory T cells (Tregs) compared to the baseline value", "setting": "[1]", "value": "decreased"}, {"measurement": "complete response (CR)", "setting": "[2]; 8 subjects diagnosed with PTCL", "value": 1, "unit": "subject"}, {"measurement": "disease control rate (DCR)", "setting": "[2]; 8 subjects diagnosed with PTCL", "value": 87.5, "unit": "%"}, {"measurement": "disease progression (PD)", "setting": "[2]; 8 subjects diagnosed with PTCL", "value": 1, "unit": "subject"}, {"measurement": "partial responses (PR)", "setting": "[2]; 8 subjects diagnosed with PTCL", "value": 2, "unit": "subject"}, {"measurement": "complete response (CR)", "setting": "[2]; [5]", "value": 1, "unit": "subject"}, {"measurement": "disease progression (PD)", "setting": "[2]; [5]", "value": 2, "unit": "subjects"}, {"measurement": "partial response (PR)", "setting": "[2]; [5]", "value": 2, "unit": "subjects"}, {"measurement": "activity in peripheral T-cell lymphoma (PTCL) subjects", "setting": "[2]; PTCL subjects, phase Ia", "value": "preliminary activity"}, {"measurement": "dose dependence of exposure concentration", "setting": "[3]; C1D1, dose range of 50 mg to 200 mg (FIG. 4)", "value": "increased in a dose-dependent manner"}, {"measurement": "maximum plasma concentration", "setting": "[3]; C1D1, single dose of 50, 100 and 200 mg QD, plasma", "value": "≤ 2443", "unit": "ng/mL"}, {"measurement": "increase in exposure based on AUCtau", "setting": "[3]; [6]", "value": "~4.97", "unit": "fold"}, {"measurement": "increase in exposure based on Cmax", "setting": "[3]; [6]", "value": "~2.92", "unit": "fold"}, {"measurement": "dose dependence of exposure concentration", "setting": "[3]; multiple dosing (C1D15), dose range of 50 mg to 200 mg (FIG. 5)", "value": "increased in a dose-dependent manner"}, {"measurement": "accumulation", "setting": "[3]; multiple dosing, dose range of 50 mg to 200 mg", "value": "no accumulation observed"}, {"measurement": "dose limiting toxicities (DLTs) observed", "setting": "[4]; cohort 4, 325 mg QD", "value": "two"}, {"measurement": "serious adverse events rated as grades 3 (severe) to 5 (death)", "setting": "[4]; cohorts 1 to 3 (50, 100, 200 mg QD)", "value": "no serious adverse events"}, {"measurement": "subjects with TEAEs evaluated to be related to the test drug", "setting": "[4]; cohorts 1 to 3 (50, 100, 200 mg QD), 3 of 5 subjects", "value": 60.0, "unit": "%"}, {"measurement": "subjects with treatment-emergent adverse events (TEAEs)", "setting": "[4]; cohorts 1 to 3 (50, 100, 200 mg QD), 4 out of 5 subjects", "value": 80.0, "unit": "%"}, {"measurement": "administration-related deaths", "setting": "[4]; cohorts 1 to 3, 5 subjects", "value": "no administration-related deaths occurred"}, {"measurement": "subjects with TEAE of grade 1 (mild)", "setting": "[4]; cohorts 1 to 3, 5 subjects", "value": 1, "unit": "subject"}, {"measurement": "subjects with TEAE of grade 2 (moderate)", "setting": "[4]; cohorts 1 to 3, 5 subjects", "value": 2, "unit": "subjects"}, {"measurement": "subjects with TEAE of grade 4 (life-threatening)", "setting": "[4]; cohorts 1 to 3, 5 subjects, thrombocytopenia, not related to the test drug", "value": 1, "unit": "subject"}, {"measurement": "dose limiting toxicity (DLT)", "setting": "[4]; dose range of cohorts 1 to 3 (50, 100, 200 mg QD)", "value": "no dose limiting toxicity"}, {"measurement": "tolerability", "setting": "[4]; dose range up to 200 mg QD", "value": "excellent"}, {"measurement": "dose limiting toxicity (DLT)", "setting": "[4]; expansion cohort 200 mg QD, 6 subjects", "value": "No dose limiting toxicity"}, {"measurement": "subjects showing grade 3 skin reaction", "setting": "[4]; [7]", "value": 2, "unit": "subjects"}, {"measurement": "subjects showing hepatotoxicity", "setting": "[4]; [7]", "value": 3, "unit": "subjects"}, {"measurement": "maximum tolerated dose (MTD)", "setting": "[4]; oral, 28-day cycle, phase Ia", "value": 200, "unit": "mg QD"}, {"measurement": "recommended starting dose (RP2D) for clinical phase Ib/II", "setting": "[4]; recommended by the Safety Monitoring Committee", "value": 200, "unit": "mg QD"}, {"measurement": "outcome of adverse events (skin reaction, hepatotoxicity)", "setting": "[4]; upon discontinuation of the test drug", "value": "manageable and recovered to grade 0 or 1"}, {"measurement": "change of CD8+ T cells compared to the baseline value", "setting": "CD8+ T cells", "value": "increased"}]}
